Source: ChEMBL document CHEMBL3868610, “Novel bicyclo[3.1.0]hexane analogs as antagonists of metabotropic glutamate 2/3 receptors for the treatment of depression” (Bioorg Med Chem Lett, 2016)
Activity calls are given as the source filed them. The rule behind the calls is not given here.

Experiments:
[1] = Cmax in rat at 10 mg/kg, ip; assay type: ADME, organism-based; design: dose 10 mg/kg, route intraperitoneal; conditions: in vivo
[2] = Ratio of drug level in brain to plasma in mouse at 10 mg/kg, ip after 30 mins; assay type: ADME, organism-based; conditions: read-out: BPR
[3] = target: Metabotropic glutamate receptor 2 (Homo sapiens, UniProt Q14416); experiment: Antagonist activity at recombinant human mGlu2 receptor expressed in hamster AV12 cells co-expressing human EAAT1 assessed as reduction of DCG-4-inhibited forskolin-stimulated cAMP formation after 20 mins by HTRF assay; assay type: functional, cell-based
[4] = target: Metabotropic glutamate receptor 3 (Homo sapiens, UniProt Q14832); experiment: Agonist activity at recombinant human mGlu3 receptor expressed in hamster AV12 cells co-expressing human EAAT1 assessed as increase in forskolin-stimulated cAMP formation up to 25 uM after 20 mins by HTRF assay; assay type: functional, cell-based
Chain of Metabotropic glutamate receptor 3 (Q14832 whole entry): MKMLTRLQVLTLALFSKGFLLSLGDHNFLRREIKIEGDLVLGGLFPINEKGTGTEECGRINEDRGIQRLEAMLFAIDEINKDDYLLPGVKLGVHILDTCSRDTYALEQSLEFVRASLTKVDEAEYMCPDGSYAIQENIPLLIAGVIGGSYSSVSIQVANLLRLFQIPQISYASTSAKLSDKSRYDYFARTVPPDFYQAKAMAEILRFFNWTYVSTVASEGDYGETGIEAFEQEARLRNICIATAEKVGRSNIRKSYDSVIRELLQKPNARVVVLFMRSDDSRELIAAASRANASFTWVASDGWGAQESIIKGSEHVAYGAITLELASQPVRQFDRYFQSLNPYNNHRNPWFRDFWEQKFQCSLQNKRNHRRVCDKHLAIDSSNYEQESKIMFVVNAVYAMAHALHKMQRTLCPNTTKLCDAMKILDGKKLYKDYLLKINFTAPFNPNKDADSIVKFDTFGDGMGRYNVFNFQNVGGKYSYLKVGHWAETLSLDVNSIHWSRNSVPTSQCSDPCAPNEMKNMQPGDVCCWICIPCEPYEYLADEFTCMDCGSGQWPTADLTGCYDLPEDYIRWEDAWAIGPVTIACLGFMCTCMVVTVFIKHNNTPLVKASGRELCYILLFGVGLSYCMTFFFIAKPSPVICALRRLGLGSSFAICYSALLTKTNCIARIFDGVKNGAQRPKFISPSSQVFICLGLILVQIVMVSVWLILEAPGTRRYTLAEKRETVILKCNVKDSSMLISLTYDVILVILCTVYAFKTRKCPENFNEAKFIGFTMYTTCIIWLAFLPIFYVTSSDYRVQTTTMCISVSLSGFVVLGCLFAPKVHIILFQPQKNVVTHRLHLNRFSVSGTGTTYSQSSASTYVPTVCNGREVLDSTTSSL

[5] = target: Metabotropic glutamate receptor 1 (Homo sapiens, UniProt Q13255); experiment: Agonist activity at recombinant human mGlu1 receptor expressed in hamster AV12 cells co-expressing human EAAT1/Galpha1s assessed as increase in Ca2+ flux by Fluo-3-AM dye based FLIPR assay; assay type: functional, cell-based
Chain of Metabotropic glutamate receptor 1 (Q13255 whole entry): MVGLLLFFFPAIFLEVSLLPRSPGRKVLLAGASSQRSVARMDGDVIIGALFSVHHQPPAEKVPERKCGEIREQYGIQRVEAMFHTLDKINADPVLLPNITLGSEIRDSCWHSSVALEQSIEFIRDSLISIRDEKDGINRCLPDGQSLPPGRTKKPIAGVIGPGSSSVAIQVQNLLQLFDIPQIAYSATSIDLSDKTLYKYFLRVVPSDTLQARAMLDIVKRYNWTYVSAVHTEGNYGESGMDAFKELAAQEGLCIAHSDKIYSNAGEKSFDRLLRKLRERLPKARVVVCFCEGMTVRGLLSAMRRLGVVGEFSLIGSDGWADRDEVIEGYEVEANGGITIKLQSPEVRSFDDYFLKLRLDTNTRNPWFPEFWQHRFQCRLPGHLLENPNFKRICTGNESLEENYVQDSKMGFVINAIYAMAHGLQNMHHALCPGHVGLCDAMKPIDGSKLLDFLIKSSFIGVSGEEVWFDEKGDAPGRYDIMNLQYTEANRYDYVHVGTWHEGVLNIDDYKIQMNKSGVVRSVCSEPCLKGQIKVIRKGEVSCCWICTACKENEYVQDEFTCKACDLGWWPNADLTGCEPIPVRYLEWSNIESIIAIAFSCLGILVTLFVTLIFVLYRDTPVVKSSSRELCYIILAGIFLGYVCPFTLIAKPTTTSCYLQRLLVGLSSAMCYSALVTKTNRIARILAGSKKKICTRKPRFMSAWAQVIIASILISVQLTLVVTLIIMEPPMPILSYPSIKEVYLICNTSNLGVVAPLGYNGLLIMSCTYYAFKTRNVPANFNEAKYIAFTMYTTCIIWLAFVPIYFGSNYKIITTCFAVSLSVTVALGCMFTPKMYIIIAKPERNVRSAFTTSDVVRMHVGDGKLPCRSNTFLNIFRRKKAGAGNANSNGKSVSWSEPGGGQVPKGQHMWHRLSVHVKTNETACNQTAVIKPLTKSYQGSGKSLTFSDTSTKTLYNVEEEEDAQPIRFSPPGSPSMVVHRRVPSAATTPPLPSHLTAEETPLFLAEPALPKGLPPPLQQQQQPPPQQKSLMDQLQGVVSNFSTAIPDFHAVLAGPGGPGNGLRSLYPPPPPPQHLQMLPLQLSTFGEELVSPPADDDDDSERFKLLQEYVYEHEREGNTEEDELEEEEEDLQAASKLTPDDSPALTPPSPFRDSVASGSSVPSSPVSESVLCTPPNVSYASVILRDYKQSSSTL

[6] = target: Metabotropic glutamate receptor 4 (Homo sapiens, UniProt Q14833); experiment: Antagonist activity at recombinant human mGlu4 receptor expressed in hamster AV12 cells co-expressing human EAAT1/Galpha1s assessed as inhibition of Ca2+ flux by Fluo-3-AM dye based FLIPR assay; assay type: functional, cell-based
Chain of Metabotropic glutamate receptor 4 (Q14833 whole entry): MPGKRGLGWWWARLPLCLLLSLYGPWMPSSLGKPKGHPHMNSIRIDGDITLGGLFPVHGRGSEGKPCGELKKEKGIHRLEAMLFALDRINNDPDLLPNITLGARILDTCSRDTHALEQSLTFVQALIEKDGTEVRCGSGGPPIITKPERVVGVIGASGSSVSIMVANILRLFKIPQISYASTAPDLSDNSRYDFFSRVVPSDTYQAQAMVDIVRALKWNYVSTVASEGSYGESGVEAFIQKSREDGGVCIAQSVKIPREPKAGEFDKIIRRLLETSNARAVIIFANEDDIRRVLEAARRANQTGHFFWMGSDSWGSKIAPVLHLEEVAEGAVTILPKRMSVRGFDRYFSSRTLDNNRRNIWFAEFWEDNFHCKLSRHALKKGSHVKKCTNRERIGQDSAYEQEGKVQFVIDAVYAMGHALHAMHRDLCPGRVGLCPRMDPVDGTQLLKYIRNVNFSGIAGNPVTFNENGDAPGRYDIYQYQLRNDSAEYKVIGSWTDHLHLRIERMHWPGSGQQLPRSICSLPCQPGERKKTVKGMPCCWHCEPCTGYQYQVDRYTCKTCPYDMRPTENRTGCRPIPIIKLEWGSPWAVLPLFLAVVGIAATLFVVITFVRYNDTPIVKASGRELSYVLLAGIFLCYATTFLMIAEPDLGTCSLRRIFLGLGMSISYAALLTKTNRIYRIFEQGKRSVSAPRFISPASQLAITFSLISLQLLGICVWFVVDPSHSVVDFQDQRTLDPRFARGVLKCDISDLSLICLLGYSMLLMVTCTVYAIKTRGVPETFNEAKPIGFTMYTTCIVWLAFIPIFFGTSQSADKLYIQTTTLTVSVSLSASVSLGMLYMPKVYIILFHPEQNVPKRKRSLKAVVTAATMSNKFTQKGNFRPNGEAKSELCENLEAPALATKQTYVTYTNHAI

hERG (KCNH2) = hERG (KCNH2) (Homo sapiens, UniProt Q12809); experiment: Displacement of [3H]-Astemizole from human ERG at 100 uM by membrane binding assay; conditions: membranes with human ERG, probe [3H]-Astemizole
Chain of hERG (KCNH2) (Q12809 whole entry): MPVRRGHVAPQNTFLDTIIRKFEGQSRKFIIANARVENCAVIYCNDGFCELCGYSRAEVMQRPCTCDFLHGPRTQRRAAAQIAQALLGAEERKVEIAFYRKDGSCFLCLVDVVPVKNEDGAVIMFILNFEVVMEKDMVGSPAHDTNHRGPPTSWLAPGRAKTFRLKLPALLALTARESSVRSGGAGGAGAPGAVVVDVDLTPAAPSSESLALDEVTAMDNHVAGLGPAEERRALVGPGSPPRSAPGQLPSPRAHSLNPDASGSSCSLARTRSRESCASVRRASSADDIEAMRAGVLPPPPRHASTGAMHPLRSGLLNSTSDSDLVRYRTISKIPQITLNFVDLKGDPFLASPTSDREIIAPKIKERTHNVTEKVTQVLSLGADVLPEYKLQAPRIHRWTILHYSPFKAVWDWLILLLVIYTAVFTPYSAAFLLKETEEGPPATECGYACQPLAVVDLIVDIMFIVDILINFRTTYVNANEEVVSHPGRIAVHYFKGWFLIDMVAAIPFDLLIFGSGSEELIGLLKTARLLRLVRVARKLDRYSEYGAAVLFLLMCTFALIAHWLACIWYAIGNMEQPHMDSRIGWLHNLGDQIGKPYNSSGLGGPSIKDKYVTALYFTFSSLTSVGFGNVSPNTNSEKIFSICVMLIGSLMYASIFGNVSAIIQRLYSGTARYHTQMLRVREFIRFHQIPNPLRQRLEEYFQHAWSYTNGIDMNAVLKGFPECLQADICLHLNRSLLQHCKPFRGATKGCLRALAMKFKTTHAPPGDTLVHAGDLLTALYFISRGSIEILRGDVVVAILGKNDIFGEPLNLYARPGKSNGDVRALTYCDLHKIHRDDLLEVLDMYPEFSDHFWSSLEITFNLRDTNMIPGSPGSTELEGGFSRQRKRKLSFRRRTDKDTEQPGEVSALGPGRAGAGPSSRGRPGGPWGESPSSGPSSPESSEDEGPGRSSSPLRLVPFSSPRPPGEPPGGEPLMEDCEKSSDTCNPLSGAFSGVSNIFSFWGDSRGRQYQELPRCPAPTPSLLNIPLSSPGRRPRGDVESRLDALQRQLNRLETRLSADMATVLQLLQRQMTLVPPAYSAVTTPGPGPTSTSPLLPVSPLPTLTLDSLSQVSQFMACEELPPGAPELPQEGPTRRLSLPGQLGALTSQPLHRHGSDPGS

[7] = Drug metabolism in rat microsomes at 4 uM after 30 mins; assay type: ADME, Microsome; conditions: read-out: Drug metabolism
[8] = Drug metabolism in dog microsomes at 4 uM after 30 mins; assay type: ADME, Canis lupus familiaris, Microsome; conditions: read-out: Drug metabolism
[9] = Drug metabolism in monkey microsomes at 4 uM after 30 mins; assay type: ADME, Macaca mulatta, Microsome; conditions: rhesus monkey, read-out: Drug metabolism
[10] = Drug metabolism in human microsomes at 4 uM after 30 mins; assay type: ADME, Microsome; conditions: read-out: Drug metabolism
[11] = Unbound fraction in human plasma at 1 uM; assay type: ADME, cell-free
[12] = Volume of distribution at steady state in rat at 1 mg/kg, iv; assay type: ADME, organism-based; conditions: in vivo, read-out: Vdss
[13] = Half life in rat at 1 mg/kg, iv; assay type: ADME, organism-based; conditions: in vivo
[14] = AUC (0 to 24 hrs) in rat at 5 mg/kg, po; assay type: ADME, organism-based; design: time < 24 hr, dose 5 mg/kg, route oral; conditions: in vivo
[15] = Antidepressant activity in rat EEG model assessed as accumulated wake time at 10 mg/kg, ip measured over 7 hrs relative to control; assay type: functional, organism-based
Rattus norvegicus = experiment: Toxicity in rat assessed as increase in locomotive activity at 3 to 10 mg/kg, ip; assay type: organism-based; conditions: in vivo
[16] = Antidepressant activity in NIH Swiss Webster mouse assessed as immobility time at 0.3 mg/kg, ip administered 30 mins prior to test measured during last 4 mins of the 6 mins observation time by forced swim test (reference value: 142 sec); assay type: functional, organism-based
[17] = Antidepressant activity in NIH Swiss Webster mouse assessed as immobility time at 3 mg/kg, ip administered 30 mins prior to test measured during last 4 mins of the 6 mins observation time by forced swim test (reference value: 142 sec); assay type: functional, organism-based
[18] = Antidepressant activity in rat assessed as increase in wakefulness at 3 to 10 mg/kg, ip

Cmax [1]: 48.1 µM | Kp at 0.5 h [2]: 0.015 | IC50 [3]: 0.046 µM | Imax [3]: > 94% | EC50 [4]: > 25 µM | EC50 [5]: > 25 µM | IC50 [6]: > 12.5 µM | metabolised at 0.5 h, 4 µM [7]: < 20% | metabolised at 0.5 h, 4 µM [8]: < 20% | metabolised at 0.5 h, 4 µM [9]: < 20% | metabolised at 0.5 h, 4 µM [10]: < 20% | fraction unbound at 1 µM [11]: > 0.4 | Vd [12]: 0.589 L/kg | half-life [13]: 4.61 h | AUC [14]: 1.783 µM·h
SMILES: N[C@]1(C(=O)O)[C@@H]2[C@@H](C(=O)O)[C@@H]2[C@H](O)[C@H]1OCc1ccc(Cl)c(Cl)c1
inhibition at 100 µM (hERG (KCNH2)): 13% | TIME [15]: 0.683 h | Activity (Rattus norvegicus): Non-Toxic | TIME [16]: 0.0394 h | TIME [17]: 0.0167 h | Activity [18]: Active
